Entries after “also recorded” stand apart in the source; their conditions may differ.
What was measured:
[1] = system: dorsal NPCs in mESC-derived EBs; experiment: Embryoid body proliferation assay (EdU incorporation, pH3) with CHIR; assay type: cell-based, mouse
Description: Embryoid body (EB) culture. and expansion: To initiate EB formation, dissociated embryonic stem cells were seeded in low attachment plates (Corning) at 10^5 cells/ml density in N2/B27 medium supplemented with 10 ng/ml bFGF. To induce posterior spinal cord and dorsal spinal patterning, RA and RA+BMP4 were added using the same timeline as described for the 2D differentiation, and the media was changed at every other day after day 5.
For EBs, EBs were collected and fixed with fresh 4% PFA for 20 minutes at 4° C. EBs were then equilibrated with 30% sucrose for overnight at 4C and embedded into the OCT compound for cryo-sectioning. 12 um sections were collected onto positive charged slides (VVVR), incubated with the antibody blocking solution for 1 hr, and then stained as above.
Image quantification: To count the number of nuclei, images were converted to 8 bit image in ImageJ, their threshold intensity was adjusted to capture only the florescent nuclei, and the number of nuclei counted using the analyze particle tool in ImageJ. For each image, the area under the DAPI staining was determined using ImageJ and target cells were represented as % of cells in 100 μm^2 DAPI^+ area.
We then asked whether activating Wnt signaling in mESC-derived NMPs affected their mitotic index. To better visualize proliferation, mESCs were permitted to assemble into three dimensional EBs (Andrews et al., 2017; Duval et al., 2019; Gupta et al., 2018), and then treated with RA±BMP4 over the same timeline as protocol 1 and 3 (FIG. 1B) to induce dorsal spinal cord patterning. EBs were then cultured with either DMSO or CHIR from day 5 to day 9 (FIG. 6C), when the cultures were pulsed with 5-Ethynyl-2′-deoxyuridine (EdU) to label cells in S-phase of the cell cycle. Strikingly, there was a ~3-fold increase in EdU+cells in CHIR-treated EBs (FIG. 6E, 6G, 6H) compared to DMSO control (FIG. 6D, 6F, 6H) in both protocols. […] Many of the dividing cells in the CHIR-treated cultures were Sox2+NPCs (FIG. 6E, 6G), while NPCs are largely depleted by day 9 in control cultures (FIG. 6D, 6F). Thus, extending the window of Wnt signaling appears to prolong NPC proliferation.

hESCs/hiPSCs = experiment: Induction of NMPs from hPSCs in 2D culture (FGF2, CHIR99021); assay type: cell-based, human; settings: N2/B27 with FGF2 and CHIR99021, up to day 6
Description: Add 2 mL N2/B27 media containing 10ng of FGF2 and SuM of CHIR99021 (Wnt signaling agonist) to each well of the 6-well plate and return the plate to the incubator. Feed cells every other day with N2/B27 media for up to 6 days. Cells should appear as a monolayer with cells packed together tightly at the end of day 6 (FIG. 16A). This confluency is optimal for embryoid body (EB) formation in the next step.

mESCs-derived NMPs = experiment: 2D directed differentiation of NMPs with RA/BMP4, immunohistochemistry (pSmad1/5/8, Pax3, Pax6, Sox2, Tuj1, Pax2); assay type: cell-based, mouse; settings: 24 hr pulse of RA at day 3
Description: The mouse ESC line, MM13, was routinely maintained in ES cell media (DMEM+20% FBS) with 100u/ml of mouse leukocyte inducing factor (LIF). […] To prepare cells for the differentiation, ESC colonies were dissociated with 0.25% trypsin and plated on gelatin coated plates at 1:10 dilution to reduce MEF transfer. Cells cultured on gelatin coated plates and allowed to proliferate for 1-2 days. To initiate differentiation, cells were plated on 0.1% gelatin coated 24-well CellBIND dishes (Corning) at 20,000 cells/ml density in 0.5 ml/well N2/B27 medium that contains 10 ng/ml basic fibroblast growth factor (bFGF). The N2/B27 medium contains 1:1 portions of Advanced Dulbecco's modified Eagle Media (DMEM) F12 (Hyclone) and Neurobasal media (Thermo Fisher Scientific) supplemented with 0.5×N2, 1×B27 supplement (with Vitamin A), 2 mM L-glutamine, 0.1 mM 2-mercaptoethanol (ME), and 1% BSA. On day 1, small colonies of cells can be observed attached to the bottom of the wells. On day 2, cells were supplemented with 10 ng/ml bFGF and 5 μM CHIR99021 for 24 hours to induce a neuromesodermal identity (Gouti et al., 2014). On day 3, media was changed as follows: for protocol 1, cells were exposed to 100 nM RA for 48 hrs. […] At the end of the differentiation, the cultures were fixed for immunohistochemical analysis or lysed to obtain RNA for RNA-Seq or quantitative reverse transcriptase PCR analysis. […]

[2] = RA±BMP4 patterned EBs, CHIR day 5 to day 9

SMILES | increase in EdU+ cells compared to DMSO control [1, 2] | increase in the number of pHistone H3 (pH3)+ cells compared to control [1, 2] | increase in cell proliferation (EdU+ and pH3+ cells) compared to DMSO ([1]; RA±BMP4 patterned EBs, n=15-25 EBs) | identity of CHIR-treated NPCs (Pax3, Pax7, Olig3) ([1]; protocol 1 and protocol 3 EBs, day 9) | growth rate of the hPSC/NMP monolayer (hESCs/hiPSCs) | Pax3+ cells by day 4 (mESCs-derived NMPs)
Cc1c[nH]c(-c2cnc(NCCNc3ccc(C#N)cn3)nc2-c2ccc(Cl)cc2Cl)n1 [CHIR, CHIR99021] | ~ 3 fold | 2-4 fold | ~ 3 fold | retained their original identity; also recorded: does not significantly (unpaired t-test) alter their dorsal-ventral identities | induces a higher growth rate in the monolayer | –
CC1=C(/C=C/C(C)=C/C=C/C(C)=C/C(=O)O)C(C)(C)CCC1 [RA, retinoic acid] | – | – | – | – | – | 90-95%
